Laboratory results taken from article PMC2248282 (Chemmedchem, 2007).

Tests used:
T. b. brucei (Bs427) = assay: In vitro trypanocidal assay; format: cell-based; conditions: for IC50: Trypanosoma brucei, read-out: IC50 Bs427; for activity against T. b. brucei (in words): in vitro
[1] = system: human embryonic kidney cells (HEK 293T); assay: Cytotoxicity to mammalian cells; format: cell-based; conditions: read-out: IC50 HEK 293T
[2] = LC-MS stability in phosphate buffer saline at 37°C; format: physicochemical
[3] = phosphate buffered saline, pH 7.2

half-life at 1 mg/mL [2, 3]	Molecule	IC50 (T. b. brucei (Bs427))	activity against T. b. brucei (in words) (T. b. brucei (Bs427))	IC50 [1]	half-life ([2]; PBS (pH 7.2) at 37°C, LC-MS, disappearance of molecular ion)	half-life [2, 3]
	CC1(C)OC(COP(=O)(OCCSC(=O)C(C)(C)C)OCCSC(=O)C(C)(C)C)C(C(=O)NO)O1 (stereo not drawn) [Compound 3a, 2,2-Dimethyl-thiopropionic acid S-{2-[[2-(2,2-dimethyl-propionylsulfanyl)-ethoxy]-(5-hydroxycarbamoyl-2,2-dimethyl-[1,3]dioxolan-4-ylmethoxy)-phosphoryloxy]-ethyl} ester]	4.23 µM	highest activity	> 200 µM		
	COc1ccc(CONC(=O)C2OC(C)(C)OC2COP(=O)(OCCSC(=O)C(C)(C)C)OCCSC(=O)C(C)(C)C)c(OC)c1 (stereo not drawn) [Compound 24, 2,2-dimethyl-thiopropionic acid S-(2-{[5-(2,4-dimethoxy-benzyloxycarbamoyl)-2,2-dimethyl-[1,3]dioxolan-4-ylmethoxy]-[2-(2,2-dimethyl-propionylsulfanyl)-ethoxy]-phosphoryloxy}-ethyl) ester]	25 µM	improved activity	> 200 µM		
	COc1ccc(CONC(=O)C2OC(C)(C)OC2COP(=O)(OCCSC(=O)C(C)(C)C)Oc2ccccc2)c(OC)c1 (stereo not drawn) [Compound 26b, 2,2-Dimethyl-thiopropionic acid S-(2-{[5-(2,4-dimethoxy-benzyloxycarbamoyl)-2,2-dimethyl-[1,3]dioxolan-4-ylmethoxy]-phenoxy-phosphoryloxy}-ethyl) ester]	> 100 µM		> 200 µM		
	2,2-Dimethyl-thiopropionic acid S-(2-{[5-(2,4-dimethoxy-benzyloxycarbamoyl)-2,2-dimethyl-[1,3]dioxolan-4-ylmethoxy]-phenoxy-phosphoryloxy}-ethyl) ester [Compound 3d]		highest activity		128 min	
	COc1ccc(CONC(=O)C2OC(C)(C)OC2COP(=O)(OCCSC(=O)C(C)(C)C)Oc2ccccc2)cc1 (stereo not drawn) [Compound 26a, 2,2-Dimethyl-thiopropionic acid S-(2-{[5-(4-methoxy-benzyloxycarbamoyl)-2,2-dimethyl-[1,3]dioxolan-4-ylmethoxy]-phenoxy-phosphoryloxy}-ethyl) ester]	> 100 µM		> 200 µM		
	COC(=O)C(C)NP(=O)(OCC1OC(C)(C)OC1C(=O)NO)Oc1ccccc1 (stereo not drawn) [Compound 3b, 2-[(5-Hydroxycarbamoyl-2,2-dimethyl-[1,3]dioxolan-4-ylmethoxy)-phenoxy-phosphorylamino]-propionic acid methyl ester]	6.95 µM	highest activity	> 200 µM		300 min
31.8 min	CC1(C)OC(COP(=O)(OCOC(=O)C(C)(C)C)OCOC(=O)C(C)(C)C)C(C(=O)NO)O1 (stereo not drawn) [Compound 3e, (5-(hydroxycarbamoyl)-2,2-dimethyl-1,3-dioxolan-4-yl)methyl bis((pivaloyloxy)methyl) phosphate]	20.2 µM	moderate activities	> 200 µM		
51 min	COC(=O)C(C)NP(=O)(OCC1OC(C)(C)OC1C(=O)NO)Oc1ccc([N+](=O)[O-])cc1 (stereo not drawn) [Compound 3c, 2-[(5-Hydroxycarbamoyl-2,2-dimethyl-[1,3]dioxolan-4-ylmethoxy)-(4-nitro-phenoxy)-phosphorylamino]-propionic acid methyl ester]	43.8 µM	moderate activities	> 200 µM		
